Common to all, as to type: cell-based, mouse
Assay [1] concerns cluster of multiple follicles. Put plainly: in vitro culturing of a cluster of multiple follicles (growth, follicle fluid, maturation rate). The conditions noted are these: for growth of the cluster of multiple follicles: cluster of two to four joined follicles, fifth day compared with 13th day. An excerpt:
(§1) Specifically, an ovary was separated from a 14-day old mouse and placed in HBSS (Hank's balanced salt solution) containing 10% bovine serum. Then, pre-antral follicles in an early developmental stage were mechanically separated using a 28-gauge syringe needle. At this time, degenerated pre-antral follicles were removed, and healthy pre-antral follicles were used for a pre-antral follicle culturing. One separated pre-antral follicle was used for a single-follicle culturing, and a cluster including two to four pre-antral follicles joined together was used for culturing a cluster of multiple follicles.
(§2) After 25 20 μl culture liquid droplets were made on each culture dish (Falcon 3000, BD Biosciences, 60×15 mm), the collected single pre-antral follicle, or the cluster of multiple follicles consisting of 2 to 4 joined pre-antral follicles were seeded to each droplet. Then, those follicles were cultured in a 5% CO2 incubator at 37° C. for about 2 weeks. The culture liquid used here is Opti-MEM medium (Invitrogen) including insulin, 5% bovine serum, recombinant follicle stimulating hormone (FSH, Gonal-F®, Merck Serono, 0.2 IU/mL) and recombinant luteinizing hormone (LH, Luveris®, Merck Serono, 0.1 IU/mL). The culture liquid was changed in half with new medium every two days. In culturing process, a follicle morphology was observed using an inverted microscope (TE-2000; Nikon).
(§3) In order to observe a follicle culturing effect based on a regulation of the angiotensin II receptor, the single pre-antral follicle and the cluster of multiple follicles were compared and analyzed by divided into 3 groups: control group, angiotensin II receptor agonist (CGP-42112, Sigma)-treated group, and angiotensin II receptor antagonist (Saralasin, Sigma)-treated group. Specifically, the single pre-antral follicle and the cluster of multiple follicles were treated with the angiotensin II receptor agonist or the angiotensin II receptor antagonist to have a concentration of 10 ug/mL from day 5 of culturing.
(§4) On the 12th day of the culturing, it was observed that the pre-antral follicle was matured into an antral follicle. Then, the antral follicle was treated with recombinant human […], rhCG, Ovidrel®, Merck Serono) of 1.5 IU/m and human epidermal growth factor (hEGF) of 5 ng/mL in order to induce ovulation. At 16 to 18 hours after the ovulation induction, ovulation rate and maturation rate were calculated.
Specifically, the ovulation rate was calculated by counting the number of follicles ovulated after administration of the human […] and the human epidermal growth factor among the seeded follicles, and the maturation rate was calculated by counting the number of ova in MII phase among the ovulated ova. […]

The subject of assay [2] is mature follicle ovulated from cultured follicles. Put plainly: in vitro fertilization of ova from cultured follicles and embryo observation. The protocol:
In vitro fertilization was performed to evaluate fertilization rates of the ova obtained by the induction of ovulation. Specifically, a mature follicle ovulated in HTF (human tubal fluid) medium in the 5% CO2 incubator at 37° C. was fertilized with a sperm collected from a 8 week old male C57BL6 mouse. When cell division occur or two pronuclei are seen and a second polar body is observed, the ovum is regarded as fertilized.
In order to further confirm the effect of the angiotensin II in culturing the cluster of multiple follicles, maturation rate and fertilization rate were intended to be checked. Mature follicles were ovulated by treating them with the angiotensin II receptor agonist and inducing the ovulation via the method of Example 1 to Example 5. Then, the ovulated mature follicles were fertilized with sperms.

Assay [3] has as its system single pre-antral follicle. Put plainly: in vitro culturing of a single pre-antral follicle (growth, ovulation and maturation after ovulation induction). The conditions noted are these: for ovulation rate / growth of the follicle: single-follicle culturing, 10 ug/mL from day 5; for ovulation rate: 16 to 18 hours after ovulation induction, versus untreated single-follicle, FIG. 2; for growth of the follicle: fifth day compared with 13th day, versus untreated control (CTL), FIG. 1.
Source text: as §1, §2, §3, §4
Specifically, the ovulation rate was calculated by counting the number of follicles ovulated after administration of the human […] and the human epidermal growth factor among the seeded follicles, and the maturation rate was calculated by counting the number of ova in MII phase among the ovulated ova.
In order to investigate effect of angiotensin II in culturing a single-follicle, growth and maturation rates based on the treatment with angiotensin II receptor agonist or angiotensin II receptor antagonist were intended to be investigated. […] Further, ovulation rates were investigated by inducing ovulation in the cultured follicles.

The test system of assay [4] is multiple follicles cultured collectively. Put plainly: culturing multiple follicles collectively (growth, follicle fluid). The conditions noted are these: multiple follicles collectively treated with agonist; bottom of FIG. 8.
Source text: as §1, with “follicles. […]” for “follicles.”
In order to observe a follicle culturing effect based on a regulation of the angiotensin II receptor, the single pre-antral follicle and the cluster of multiple follicles were compared and analyzed by divided into 3 groups: control group, angiotensin II receptor agonist (CGP-42112, Sigma)-treated group, and angiotensin II receptor antagonist (Saralasin, Sigma)-treated group. […]
On the 12th day of the culturing, it was observed that the pre-antral follicle was matured into an antral follicle. […] At 16 to 18 hours after the ovulation induction, ovulation rate and maturation rate were calculated. […]

[5] abbreviates: 10 ug/mL from day 5, FIG. 3, FIG. 8 top.

Entries after “also recorded” stand apart in the source; their conditions may differ.

Consider “CGP-42112 [angiotensin II receptor agonist]”, for which the “accumulation of the follicle fluid in the follicle” value in assay [1] (cluster of multiple follicles, 10 ug/mL from day 5, FIG. 3, FIG. 8 top) is reported as “increased; also recorded: clearly observed in the all follicles”. Also, the “growth of the cluster of multiple follicles” value in assay [1] (setting [5]) is reported as “growth of all follicles was significantly promoted; also recorded: significantly promoted to grow”. In assay [1] (culturing of the cluster of multiple follicles with agonist treatment, ova in MII phase among ovulated ova, FIG. 5), this molecule had a maturation rate of 26.8%. Besides, the “cleavage of an embryo” value in assay [2] (after fertilizing matured follicles from agonist-treated cultures, FIG. 7) was “progression of cleavage of an embryo was observed”. For the same molecule, the fertilization rates entry in assay [2] (single-follicle culturing compared with culturing of the cluster of multiple follicles, agonist treated, FIG. 6) is reported as “no significant difference”. For the same molecule, in assay [3] (single-follicle culturing with agonist treatment, ova in MII phase among ovulated ova, FIG. 5), the maturation rate came to 11%. For the same molecule, in assay [3], the ovulation rate result is “not significantly different” and the “growth of the follicle” value is listed as “growing at a level similar to a single-follicle (control group, CTL) that had not been treated”. In addition, in assay [4], the “follicle fluid accumulation in the follicles” value was “almost no follicle fluid accumulation” and the “growth of the follicles” value is listed as “all follicles promoted to grow but fell into apoptosis during development”.

`CNCC(=O)N[C@@H](CCCN=C(N)N)C(=O)N[C@H](C(=O)N[C@@H](Cc1ccc(O)cc1)C(=O)N[C@H](C(=O)N[C@@H](Cc1cnc[nH]1)C(=O)N1CCC[C@H]1C(=O)N[C@@H](C)C(=O)O)C(C)C)C(C)C` [angiotensin II receptor antagonist, Saralasin]: in assay [1] (setting [5]), the “growth of the cluster of multiple follicles” value is “did not grow simultaneously but fell into apoptosis during development”. Besides, in assay [3], the ovulation rate entry is “not significantly different” and the “growth of the follicle” value is recorded as “growing at a level similar to a single-follicle (control group, CTL) that had not been treated”.
